Measured values as given in US8927547B2, “Pyrimidine derivatives” (Noviga Research AB, priority 2010, dated 2015).

Columns and labels:
Assay type in all cases: cell-based
H69 = experiment: FMCA, H69 lung cancer; conditions: Homo sapiens, NCI-H69, read-out: EC50 (μM) in various cancer cell lines: H69
Source text: (§1) The Fluorometric Microculture Cytotoxicity Assay, FMCA, is a three day non-clonogenic microplate-based cell viability assay used for measurement of the cytotoxic and/or cytostatic effect of compounds in vitro (Lindhagen, E., et al. Nat Protoc, 2008. 3(8): p. 1364-9). FMCA (Larsson, R. and P. Nygren, Anticancer Res, 1989. 9(4): p. 1111-9) represents a valuable method to measure cytotoxicity in a number of cell types, both cell lines and primary cells from patients (Larsson, R., et al., Int J Cancer, 1992. 50(2): p. 177-85; Fridborg, H., et al., Eur J Cancer, 1999. 35(3): p. 424-32; Dhar, S., et al., Br J Cancer, 1996. 74(6): p. 888-96).
(§2) FMCA is based on the principle that fluorescein diacetate (FDA) is converted to the fluorescent probe fluorescein by esterases in the plasma membranes of living cells. For experiments, 96 or 384-well microplates are prepared with compounds and stored at −70° C. until use. Cells are then seeded into the drug-prepared plates and placed in an incubator for 72 h. On the last day of incubation, the plates are washed and a buffer containing FDA is added and incubated with the cells for 45 minutes. Finally the fluorescence per well is measured in a fluorometer and a Survival Index % (SI) for each compound-treated well is calculated with the equation: Compound-treated cells minus blank divided by control cells minus blank. A high SI-value indicates a large percentage of living cells and vice versa.
(§3) Compounds of the invention as well as kinase inhibitors sorafenib, sunitinib, dasatinib, and pazopanib (reference compounds) were diluted with PBS to a concentration which was ten-times higher than the desired starting concentration. Then, a Biomek 2000 liquid handling system was employed to serially dilute the compounds in a deep-well 384-well plate. From this plate, assay plates containing 5 μl compound per well were prepared with the Biomek 2000. Certain compounds precipitated when diluted with PBS, and these compounds were therefore prepared in a 96-well plate manually as described above using culture medium RPMI 1640 instead of PBS.
(§4) The compounds were also tested at five concentrations, with five times serial dilution on the following cell types: CCRF-CEM, hTERT-RPE1 (normal retinal epithelial cells), hRPTEpiC (normal renal cells) and PBMC (peripheral blood mononuclear cells). Each experiment was performed three times, except for PBMC and hRPTEpiC, which were performed twice. SI-values were calculated, graphs were plotted using GraphPadPrism 5.0 (GraphPad Software Inc. La Jolla, Calif.) and EC50-values for each cell type and compound were determined from the curves.
(§5) The compounds of the invention were also tested on further cancer cell lines related to colon cancer (HCT116; see e.g Brattain M G, et al. Cancer Res. 1981, 41, 1751-1756), breast cancer (MCF7; see e.g. Soule H D, et al. J. Natl. Cancer Inst. 1973, 51, 1409-1416), teniposide-resistant leukaemia (CEM/VM1; see e.g. Danks M K et al. Cancer Res. 1987, 47, 1297-1301), lung cancer (H69; see e.g. Gazdar A F, et al. Cancer Res. 1980, 40, 3502-3507), doxorubicin-resistant lung cancer (H69AR; see e.g. Mirski S E, et al. Cancer Res. 1987, 47, 2594-2598), myeloma (RPMI 8226; see e.g. Matsuoka Y, et al. Proc. Soc. Exp. Biol. Med. 1967, 125, 1246-1250), doxorubicin-resistant myeloma (8226/Dox40; see e.g. Dalton W S et al. Blood 1989, 15,747-752), lymphoma (U-937, see e.g. Sundstrom C, et al. Int. J. Cancer 1976, 17, 565-577), vincristin-resistant lymphoma (U-937-vcr; see e.g. Botling J, et al. Int J Cancer 1994, 15; 58 (2), 269-274), ovarian cancer (A2780; see e.g. Hamilton T C, et al. Semin Oncol. 1984, 11, 285-298), doxorubicin-resistant ovarian cancer (A2780/Adr), cisplatin-resistant ovarian cancer (A2780/Cis; see e.g. Behrens B C, et al. Cancer Res. 1987, 47, 414-418), renal cancer (ACHN; see e.g. Borden E C, et al. Cancer Res. 1982, 42(12), 4948-4953), pancreatic cancer (PANC-1, BxPC-3, and MIA PaCa-2; see e.g. Lieber M, et al. Int. […]

U-937-vcr = experiment: FMCA, U-937-vcr vincristin-resistant lymphoma; conditions: read-out: EC50 (μM) in various cancer cell lines: U-937-ver
Source text: as §1, §2, §3, §4, §5

PANC-1 = experiment: FMCA, PANC-1 pancreatic cancer; conditions: Homo sapiens, read-out: EC50 (μM) in various cancer cell lines: PANC-1
Source text: as §1
as §2, with “versa. […]” for “versa.”
as §4, with “Each experiment was performed three times, except for PBMC and hRPTEpiC, which were performed twice.” left out, “curves. […]” for “curves.”

A2780 = experiment: FMCA, A2780 ovarian cancer; conditions: Homo sapiens, read-out: EC50 (μM) in various cancer cell lines: A2780
Source text: as §1, §2, §3, §4, §5

8226/Dox40 = experiment: FMCA, 8226/Dox40 doxorubicin-resistant myeloma; conditions: read-out: EC50 (μM) in various cancer cell lines: 8226/Dox40
Source text: as §1, §2, §3, §4, §5

ACHN = experiment: FMCA, ACHN renal cancer; conditions: Homo sapiens, read-out: EC50 (μM) in various cancer cell lines: ACHN
Source text: as §1, §2, §3, §4, §5

U-937 = experiment: FMCA, U-937 lymphoma; conditions: Homo sapiens, read-out: EC50 (μM) in various cancer cell lines: U-937
Source text: as §1, §2, §3, §4, §5

RPMI 8226 = experiment: FMCA, RPMI 8226 myeloma; conditions: Homo sapiens, read-out: EC50 (μM) in various cancer cell lines: RPMI 8226
Source text: as §1, §2, §3, §4, §5

CEM/VM1 = experiment: FMCA, CEM/VM1 teniposide-resistant leukaemia; conditions: Homo sapiens, read-out: EC50 (μM) in various cancer cell lines: CEM/VM1
Source text: as §1, §2, §3, §4, §5

EC50 (H69): 7.84 µM
EC50 (U-937-vcr): 0.3 µM
EC50 (PANC-1): < 0.1 µM
EC50 (A2780): 0.47 µM
EC50 (8226/Dox40): 1.81 µM
EC50 (ACHN): 1.9 µM
EC50 (U-937): 0.27 µM
EC50 (RPMI 8226): 0.53 µM
EC50 (CEM/VM1): 0.17 µM
Structure (SMILES): COc1ccc2[nH]cc(CCNc3nccc(NCc4ccc5[nH]ccc5c4)n3)c2c1 [Example 12, N^4-(1H-indol-5-ylmethyl)-N^2-[2-(5-methoxy-1H-indol-3-yl)ethyl]pyrimidine-2,4-diamine]
